According to patent publication US8304190B2, “Pharmacogenomics of blood pressure lowering agents” (Royal College of Surgeons in Ireland, priority 2005, dated 2012):
Entries after “also recorded” stand apart in the source; their conditions may differ. Where two headings read alike, the source gives them in different places.

Tests used:
hypertensive patients = assay: Clinic blood pressure, change from baseline with study treatment, by renin −5312 C/T genotype; format: in vivo, human; details: for BP lowering by −5312 C/T genotype: clinic and ambulatory BP, T allele carriers versus CC homozygotes
Excerpt: Tables 2 and 3 show baseline clinic and ambulatory blood pressures, and the changes from baseline with study treatment.

[1] = for Plasma aliskiren on treatment (trough): Aliskiren 300 mg, after four weeks, median (interquartile range)
plasma renin = details: aliskiren 160-640 mg; unstimulated plasma renin 10-20 pg/ml; cited from earlier work
clinical = details: human, plasma, Plasma aliskiren on treatment (trough), after four weeks, median (interquartile range)
plasma renin activity [2] = target: T1, plasma renin activity (Homo sapiens, UniProt P00797); assay: Trough plasma renin activity (PRA) after four weeks of treatment; details: after four weeks, median (interquartile range)
T1 sequence (P00797 67-406): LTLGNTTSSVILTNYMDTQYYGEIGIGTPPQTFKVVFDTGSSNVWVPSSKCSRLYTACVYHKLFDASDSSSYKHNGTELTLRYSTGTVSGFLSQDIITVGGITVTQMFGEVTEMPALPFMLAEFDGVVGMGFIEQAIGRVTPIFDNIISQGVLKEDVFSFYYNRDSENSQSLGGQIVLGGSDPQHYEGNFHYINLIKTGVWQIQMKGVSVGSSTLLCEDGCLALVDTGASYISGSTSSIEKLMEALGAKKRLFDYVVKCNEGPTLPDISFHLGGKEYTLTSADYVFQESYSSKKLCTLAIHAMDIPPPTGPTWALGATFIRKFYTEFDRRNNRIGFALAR

plasma renin activity [3] = assay: as above; details: for Effect of therapy on PRA: trough PRA after four weeks of treatment; for PRA Percentage Change / PRA on treatment (trough): Losartan 100 mg, after four weeks, median (interquartile range)
[4] = Ren CC homozygotes, Aliskiren 37.5 mg
[5] = Ren CC homozygotes, Aliskiren 75 mg
[6] = Ren CC homozygotes, Aliskiren 150 mg
[7] = Ren CC homozygotes, Aliskiren 300 mg
[8] = Ren T allele carriers, Aliskiren 37.5 mg
[9] = Ren T allele carriers, Aliskiren 75 mg
[10] = Ren T allele carriers, Aliskiren 150 mg
[11] = Ren T allele carriers, Aliskiren 300 mg

COCCCOc1cc(C[C@@H](C[C@H](N)[C@@H](O)C[C@H](C(=O)NCC(C)(C)C(N)=O)C(C)C)C(C)C)ccc1OC [Aliskiren]
Relationship between dose and BP lowering (hypertensive patients; Aliskiren 37.5 to 300 mg daily): clear dose response relationship | BP lowering by −5312 C/T genotype (hypertensive patients): BP lowering was greatest amongst CC homozygotes; also recorded: amongst CC homozygotes of the −5312 C/T variant | Plasma aliskiren on treatment (trough) ([1]; Ren CC homozygotes): 31.5 (70.3, 13.5) ng/ml | Plasma aliskiren on treatment (trough) ([1]; Ren T allele carriers): 20.5 (41.0, 17.0) ng/ml | Reduction of on treatment plasma aliskiren levels amongst T allele carriers ([1]; T allele carriers versus CC homozygotes, trough, after 4 weeks of treatment): 20%-30% | Plasma renin levels in the presence of aliskiren (plasma renin): 300 to 600 pg/mL | concentration at 4 weeks (clinical; 37.5 mg, Ren CC homozygotes, Aliskiren 37.5 mg): 3.1 ng/mL | concentration at 4 weeks (clinical; 37.5 mg, Ren T allele carriers, Aliskiren 37.5 mg): 2.4 ng/mL | concentration at 4 weeks (clinical; 75 mg, Ren CC homozygotes, Aliskiren 75 mg): 4.4 ng/mL | concentration at 4 weeks (clinical; 75 mg, Ren T allele carriers, Aliskiren 75 mg): 3.9 ng/mL | concentration at 4 weeks (clinical; 150 mg, Ren CC homozygotes, Aliskiren 150 mg): 11 ng/mL | concentration at 4 weeks (clinical; 150 mg, Ren T allele carriers, Aliskiren 150 mg): 7.1 ng/mL | concentration at 4 weeks (clinical; 300 mg, Ren CC homozygotes, Aliskiren 300 mg): 31.9 ng/mL | concentration at 4 weeks (clinical; 300 mg, Ren T allele carriers, Aliskiren 300 mg): 20.5 ng/mL | PRA Percentage Change (plasma renin activity [2]; [4]): −50.0 (−4.5, −62.7) % | PRA on treatment (trough) (plasma renin activity [2]; [4]): 0.32 (0.12, 0.77) ng/ml/h | PRA Percentage Change (plasma renin activity [2]; [5]): −61.7 (−32.7, −82.1) % | PRA on treatment (trough) (plasma renin activity [2]; [5]): 0.16 (0.09, 0.46) ng/ml/h | PRA Percentage Change (plasma renin activity [2]; [6]): −77.8 (−70.6, −84.8) % | PRA on treatment (trough) (plasma renin activity [2]; [6]): 0.10 (0.06, 0.31) ng/ml/h | PRA Percentage Change (plasma renin activity [2]; [7]): −82.5 (−69.9, −86.7) % | PRA on treatment (trough) (plasma renin activity [2]; [7]): 0.17 (0.06, 0.42) ng/ml/h | PRA Percentage Change (plasma renin activity [2]; [8]): −63.8 (−11.2, −77.9) % | PRA on treatment (trough) (plasma renin activity [2]; [8]): 0.17 (0.06, 0.89) ng/ml/h | PRA Percentage Change (plasma renin activity [2]; [9]): −54.3 (−44.4, −81.5) % | PRA on treatment (trough) (plasma renin activity [2]; [9]): 0.42 (0.20, 0.59) ng/ml/h | PRA Percentage Change (plasma renin activity [2]; [10]): −75.7 (−67.4, −82.1) % | PRA on treatment (trough) (plasma renin activity [2]; [10]): 0.17 (0.12, 0.47) ng/ml/h | PRA Percentage Change (plasma renin activity [2]; [11]): −82.5 (−69.9, −86.7) % | PRA on treatment (trough) (plasma renin activity [2]; [11]): 0.18 (0.06, 0.51) ng/ml/h | Effect of therapy on PRA (plasma renin activity [3]): suppressed PRA

CCCCc1nc(Cl)c(CO)n1Cc1ccc(-c2ccccc2-c2nn[nH]n2)cc1 [Losartan]
BP lowering by −5312 C/T genotype (hypertensive patients): greatest with Losartan 100 mg daily amongst T allele carriers; also recorded: amongst T allele carriers of the −5312 C/T variant | PRA Percentage Change (plasma renin activity [3]; Ren CC homozygotes): 110.32 (15.4, 262.5) % | PRA on treatment (trough) (plasma renin activity [3]; Ren CC homozygotes): 1.65 (0.60, 3.20) ng/ml/h | PRA Percentage Change (plasma renin activity [3]; Ren T allele carriers): 97.6 (22.2, 363.8) % | PRA on treatment (trough) (plasma renin activity [3]; Ren T allele carriers): 1.80 (0.65, 3.30) ng/ml/h | Effect of therapy on PRA (plasma renin activity [3]): increased PRA levels
